Our source for the target mRNA inhibition values is the OligoGym collection.

Where “and” joins values, the source holds several entries; their conditions need not be identical. Identical values can stand only once. After the bases stand the sugars from the 5' end (letter, count) and the backbone: PS all phosphorothioate, else s phosphorothioate and o phosphodiester by linkage. Methylation of C is not given here. e = 2'-O-(2-methoxyethyl) (MOE); k = constrained ethyl (cEt); d = 2'-deoxy (DNA)

The target of this data set is IRF4. The note with it: ASO.

For the sequence GTCAATACTGAAAGGC (sugars k3 d10 k3, PS), where the note is “SK-MEL-28, 4 µM”, the target mRNA inhibition was found to be 66%.

In the case of GTCACCTGGCAACCAT (sugars k3 d10 k3, PS), for the setting “SK-MEL-28, 4 µM”, the target mRNA inhibition stood at 41%.

For GTCACTTACACCCAGA (sugars k3 d10 k3, PS), the target mRNA inhibition (SK-MEL-28, 4 µM) turned out to be 52%.

As for GTCAGCTCCATCCTGC (sugars k3 d10 k3, PS), where the note is “SK-MEL-28, 4 µM”, the target mRNA inhibition turned out to be 52%.

On to GTCATTGCTCTTGTTC (sugars k3 d10 k3, PS), for which the target mRNA inhibition (MM.1R, 1 µM) worked out at 18%.

Regarding GTCCAGAGTCTTCAGA (sugars k3 d10 k3, PS), the target mRNA inhibition (SK-MEL-28, 4 µM) is 6%.

For GTCCCTCCAGCTTCGG (sugars k3 d10 k3, PS), the target mRNA inhibition (SK-MEL-28, 4 µM) was determined as 3%.

For GTCCGACGCACCGCGG (sugars k3 d10 k3, PS), the target mRNA inhibition (SK-MEL-28, 4 µM) turned out to be 18%.

In the case of GTCCGCCCCGCGCGGT (sugars k3 d10 k3, PS), for the setting “MM.1R, 1 µM”, the target mRNA inhibition was 3%.

Take GTCGAACCTCTGGTTC (sugars k3 d10 k3, PS): under “SK-MEL-28, 4 µM”, the target mRNA inhibition is -10%.

Consider GTCGCGCAAGTCTACA (sugars k3 d10 k3, PS), for which, for the setting “MM.1R, 1 µM”, the target mRNA inhibition is 4% and 16%.

With GTCTAAACCAGCATAT (sugars k3 d10 k3, PS), the target mRNA inhibition (SK-MEL-28, 4 µM) is 19%.

On to GTCTAAAGTCCCATCG (sugars k3 d10 k3, PS), for which, under “SK-MEL-28, 4 µM”, the target mRNA inhibition worked out at 40%.

As for GTCTATGGGATTATAT (sugars k3 d10 k3, PS), the target mRNA inhibition (SK-MEL-28, 4 µM) stood at 21%.

Turning to GTCTCAGTTTGAAGCA (sugars k3 d10 k3, PS), the target mRNA inhibition (SK-MEL-28, 4 µM) is 69% and 74%.

Turning to GTCTGGCTAGCAGAGG (sugars k4 d8 k4, PS), the target mRNA inhibition (SK-MEL-28, 4 µM) was found to be 9%.

Regarding GTGAAAACACTCATGG (sugars k3 d10 k3, PS), the target mRNA inhibition (SK-MEL-28, 4 µM) was 60%.

Take “GTGATAGCTGAGCTGA (sugars k2 d9 e3 k2, PS)”: the target mRNA inhibition (MM.1R, 1 µM) came to 13%.

As to GTGATAGCTGAGCTGA (sugars k3 d10 k3, PS), the target mRNA inhibition is 51% and 42% (H929, 0.04 µM); 77% and 89% (KMS11, 0.2 µM); 13% and 17% (MM.1R, 0.0625 µM); 38% and 47% (MM.1R, 0.25 µM); 70% and 75% (MM.1R, 1 µM); 89% and 88% (MM.1R, 4 µM).

Take “GTGATAGCTGAGCTGA (sugars kkddddddddddkeke, PS)”: the target mRNA inhibition (MM.1R, 1 µM) was determined as 35%.

Take “GTGATAGCTGAGCTGA (sugars kkdddddddddekeke, PS)”: the target mRNA inhibition (MM.1R, 1 µM) stood at 24%.

Turning to GTGATAGGTATACTTA (sugars k3 d10 k3, PS), the target mRNA inhibition (SK-MEL-28, 4 µM) came out at 65%.

For GTGATGTCAGGTTTTC (sugars k3 d10 k3, PS), the target mRNA inhibition stood at 11% (MM.1R, 0.074 µM); 38% (MM.1R, 0.222 µM); 66% (MM.1R, 0.666 µM); 66% (MM.1R, 1 µM); 90% (MM.1R, 2 µM).

As for “GTGATGTCAGGTTTTC (sugars kkddddddddddkeke, PS)”, the target mRNA inhibition (MM.1R, 1 µM) stood at 18%.

Consider GTGGAACTCATAGGTG (sugars k3 d10 k3, PS), for which the target mRNA inhibition (SK-MEL-28, 4 µM) was found to be 53%.

For the sequence GTGGGTCCCAAGATCG (sugars k3 d10 k3, PS), the target mRNA inhibition (SK-MEL-28, 4 µM) is 40%.

As to GTGTAAGGTCTGAGAG (sugars k3 d10 k3, PS), the target mRNA inhibition (SK-MEL-28, 4 µM) is 16%.

“GTGTCTAAAGTCCCAT (sugars kddddddddddkekek, PS)”: the target mRNA inhibition (MM.1R, 1 µM) is 34% and 23%.

In the case of GTGTGCTTGCCAAGCC (sugars k3 d10 k3, PS), the target mRNA inhibition was 35% (MM.1R, 0.0625 µM); 23% (MM.1R, 0.25 µM); 66% and 63% (MM.1R, 1 µM); 87% (MM.1R, 4 µM).

For “GTGTGCTTGCCAAGCC (sugars kkdddddddddkekek, PS)”, the target mRNA inhibition (MM.1R, 1 µM) was 41% and 39%.

As for GTGTTCCAGGAGATAT (sugars k3 d10 k3, PS), the target mRNA inhibition (MM.1R, 1 µM) worked out at 30%.

For GTTAAAGCAGCATAAT (sugars k3 d10 k3, PS), the target mRNA inhibition (SK-MEL-28, 4 µM) worked out at 27%.

As for GTTAAGTACTTGGACA (sugars k3 d10 k3, PS), the target mRNA inhibition (SK-MEL-28, 4 µM) amounted to 32%.

For the sequence GTTAATAATGCTTGCA (sugars k3 d10 k3, PS), the target mRNA inhibition (SK-MEL-28, 4 µM) came out at 2%.

GTTACCGCATTGCTAG (sugars k3 d10 k3, PS): where the note is “MM.1R, 1 µM”, the target mRNA inhibition was 16%.

GTTACTAATTCCATAG (sugars k3 d10 k3, PS): the target mRNA inhibition (SK-MEL-28, 4 µM) is 49%.

On to GTTCAAAGCGCACCGC (sugars k3 d10 k3, PS), for which the target mRNA inhibition (SK-MEL-28, 4 µM) is 65%.

As to GTTCATACCCAATAGT (sugars k3 d10 k3, PS), the target mRNA inhibition (SK-MEL-28, 4 µM) came out at 66%.

Regarding GTTCATATCACAGAGC (sugars k3 d10 k3, PS), the target mRNA inhibition (SK-MEL-28, 4 µM) was 45%.

For GTTCCTGTCACCTGGC (sugars k4 d8 k4, PS), the target mRNA inhibition (SK-MEL-28, 4 µM) was determined as 12%.

Consider GTTCTCTACTGTTTGT (sugars k3 d10 k3, PS), for which the target mRNA inhibition (SK-MEL-28, 4 µM) was 68%.

For the sequence GTTGCATAGGCATCCT (sugars k3 d10 k3, PS), for the setting “MM.1R, 1 µM”, the target mRNA inhibition came to 27%.

In the case of GTTGCATGGCTAATGA (sugars k3 d10 k3, PS), the target mRNA inhibition (SK-MEL-28, 4 µM) came to 61%.

As to GTTGCCGAGATATAAA (sugars k3 d10 k3, PS), the target mRNA inhibition (MM.1R, 1 µM) was 13%.

As for GTTGGCTGGTCTTTGT (sugars k3 d10 k3, PS), for the setting “MM.1R, 1 µM”, the target mRNA inhibition amounted to 63%.

With “GTTGGCTGGTCTTTGT (sugars kdddddddddkekeke, PS)”, the target mRNA inhibition (MM.1R, 1 µM) worked out at 18%.

“GTTGGCTGGTCTTTGT (sugars kkdddddddddkekek, PS)”: the target mRNA inhibition (MM.1R, 1 µM) was 62%.

With “GTTGTAAATGAGTCGG (sugars e1 k2 d9 k2 e2, PS)”, the target mRNA inhibition reads like this: (MM.1R, 0.074 µM) 17%; (MM.1R, 0.222 µM) 38%; (MM.1R, 0.666 µM) 57%; (MM.1R, 1 µM) 69%; (MM.1R, 2 µM) 79%.

For GTTGTACAGGACAGGT (sugars k3 d10 k3, PS), the target mRNA inhibition (MM.1R, 1 µM) was found to be 33%.

For the sequence GTTGTAGTCCTGCTTG (sugars k3 d10 k3, PS), the target mRNA inhibition (SK-MEL-28, 4 µM) stood at 22%.

GTTGTCTGGCTAGCAG (sugars k3 d10 k3, PS): the target mRNA inhibition by setting is: (SK-MEL-28, 0.185 µM) 20%; (SK-MEL-28, 4 µM) 59%; (SK-MEL-28, 5 µM) 70%; (SK-MEL-28, 15 µM) 89%.

With GTTTACACTGGATCTG (sugars k3 d10 k3, PS), the target mRNA inhibition (SK-MEL-28, 4 µM) turned out to be 61%.

With GTTTACTAACTGGCTT (sugars k3 d10 k3, PS), where the note is “SK-MEL-28, 4 µM”, the target mRNA inhibition amounted to 27%.

TAAAAGGTTCCTGTCA (sugars k4 d8 k4, PS): the target mRNA inhibition (SK-MEL-28, 4 µM) is 43%.

On to TAAAGAGCGCATTTCA (sugars k3 d10 k3, PS), for which, for the setting “SK-MEL-28, 4 µM”, the target mRNA inhibition is 41%.

In the case of TAAAGATGCCAGAGGG (sugars k3 d10 k3, PS), the target mRNA inhibition (SK-MEL-28, 4 µM) was determined as 39%.

On to TAAATCACCCTGGTCA (sugars k3 d10 k3, PS), for which the target mRNA inhibition (SK-MEL-28, 4 µM) was found to be 22%.

As for TAACAAGTTATCCAGT (sugars k3 d10 k3, PS), under “SK-MEL-28, 4 µM”, the target mRNA inhibition came to 12%.

For the sequence TAACAATACTGTAAGG (sugars k3 d10 k3, PS), the target mRNA inhibition (SK-MEL-28, 4 µM) was determined as 45%.

With TAACACGGTGTTGACA (sugars k3 d10 k3, PS), the target mRNA inhibition (SK-MEL-28, 4 µM) was 35%.

For the sequence TAACTTCTCCTGTGCA (sugars k3 d10 k3, PS), the target mRNA inhibition (MM.1R, 1 µM) is 15%.

Take TAATATAGTTGTCTGG (sugars k3 d10 k3, PS): where the note is “SK-MEL-28, 4 µM”, the target mRNA inhibition turned out to be 40%.

Consider TAATTTTAAGGCCCTG (sugars k3 d10 k3, PS), for which the target mRNA inhibition (SK-MEL-28, 4 µM) is 39%.

TACAGGACAGGTAAAG (sugars k3 d10 k3, PS): under “MM.1R, 1 µM”, the target mRNA inhibition is -29%.

Take TACATGGCAGTGGAGC (sugars k3 d10 k3, PS): under “SK-MEL-28, 4 µM”, the target mRNA inhibition was found to be 71%.

Take TACATTCACACTGCCG (sugars k3 d10 k3, PS): the target mRNA inhibition is -3% (MM.1R, 0.074 µM); 2% (MM.1R, 0.222 µM); 15% (MM.1R, 0.666 µM); 9% (MM.1R, 2 µM); 50% and 58% (SK-MEL-28, 4 µM).

For TACCCTGGATCACTCA (sugars k3 d10 k3, PS), the target mRNA inhibition (SK-MEL-28, 4 µM) is 65%.

As to TACCGATGCTTCAAGA (sugars k3 d10 k3, PS), the target mRNA inhibition (MM.1R, 1 µM) is -3%.

With TACCTCAGTTTGTGAA (sugars k3 d10 k3, PS), under “MM.1R, 1 µM”, the target mRNA inhibition amounted to 11%.

With TACGACAACTTTCCTG (sugars k3 d10 k3, PS), the target mRNA inhibition (SK-MEL-28, 4 µM) came to 41%.

TACTAACTGGCTTCCA (sugars k3 d10 k3, PS): the target mRNA inhibition (SK-MEL-28, 4 µM) was found to be 28%.

Consider TACTAGGTGCTTGTTG (sugars k3 d10 k3, PS), for which, where the note is “SK-MEL-28, 4 µM”, the target mRNA inhibition was 49%.

With “TACTGCTTGAGGTTTT (sugars kddddddddddkekek, PS)”, the target mRNA inhibition (MM.1R, 1 µM) worked out at 24%.

With TACTGTTACCGATGCT (sugars k3 d10 k3, PS), the target mRNA inhibition reads like this: (MM.1R, 0.0625 µM) -6%; (MM.1R, 0.25 µM) -4%; (MM.1R, 1 µM) 37% and 18%; (MM.1R, 4 µM) 38%.

Take “TACTGTTACCGATGCT (sugars kdddddddddkekeke, PS)”: the target mRNA inhibition (MM.1R, 1 µM) is 18%.

“TACTGTTACCGATGCT (sugars kkdddddddddkekek, PS)”: for the setting “MM.1R, 1 µM”, the target mRNA inhibition was 9% and 27%.

As to TAGAAAGAGCTGGTAG (sugars k3 d10 k3, PS), under “SK-MEL-28, 4 µM”, the target mRNA inhibition was determined as 9%.

Take TAGAAGCCCACAAGAA (sugars k3 d10 k3, PS): the target mRNA inhibition (SK-MEL-28, 4 µM) came out at 1%.

With TAGCAAATGGCAAGTT (sugars k3 d10 k3, PS), under “SK-MEL-28, 4 µM”, the target mRNA inhibition stood at 17%.

In the case of TAGCAGAGGTTCTACG (sugars k3 d10 k3, PS), where the note is “SK-MEL-28, 4 µM”, the target mRNA inhibition was found to be 24%.

For the sequence TAGCATGGATCCTGAG (sugars k3 d10 k3, PS), the target mRNA inhibition (SK-MEL-28, 4 µM) came to 0%.

Take TAGGACTAAGGACAGC (sugars k3 d10 k3, PS): where the note is “MM.1R, 1 µM”, the target mRNA inhibition was -5%.

On to TAGGCACATCAATGTT (sugars k3 d10 k3, PS), for which the target mRNA inhibition (MM.1R, 1 µM) amounted to 12%.
